Experimental data from ChEMBL document CHEMBL1821633, “Norcantharimide analogues possessing terminal phosphate esters and their anti-cancer activity” (2011).

Legend:
Format in all cases: functional
[1] = system: HT-29; assay: Antiproliferative activity against human HT-29 cells after 72 hrs by MTT assay; settings: HT-29, 72 h
[2] = system: SW480; assay: Antiproliferative activity against human SW480 cells after 72 hrs by MTT assay; settings: SW480, 72 h
[3] = system: MCF7; assay: Antiproliferative activity against human MCF7 cells after 72 hrs by MTT assay; settings: MCF7, 72 h
[4] = system: A2780; assay: Antiproliferative activity against human A2780 cells after 72 hrs by MTT assay; settings: A2780, 72 h
[5] = system: NCI-H460; assay: Antiproliferative activity against human H460 cells after 72 hrs by MTT assay; settings: NCI-H460, 72 h
[6] = system: A-431; assay: Antiproliferative activity against human A431 cells after 72 hrs by MTT assay; settings: A-431, 72 h
[7] = system: DU-145; assay: Antiproliferative activity against human DU145 cells after 72 hrs by MTT assay; settings: DU-145, 72 h
[8] = Antiproliferative activity against human BE(2)-C cells after 72 hrs by MTT assay
[9] = Antiproliferative activity against human SJ-G2 cells after 72 hrs by MTT assay; settings: SJ-G2, 72 h

Row | SMILES | GI50 [1] | GI50 [2] | GI50 [3] | GI50 [4] | GI50 [5] | GI50 [6] | GI50 [7] | GI50 [8] | GI50 [9]
1 | O=C1[C@@H]2[C@H](C(=O)N1[C@H]1CCCC[C@@H]1OP(=O)(Oc1ccccc1)Oc1ccccc1)[C@H]1CC[C@@H]2O1 | 11 µM | 26 µM | 14 µM | 24 µM | 48 µM | 26 µM | 35 µM | 28 µM | 31 µM
2 | O=C1OC(=O)C2C3CCC(O3)C12 (stereo not drawn) [DEMETHYL-CANTHARIDIN] | 57 µM | 44 µM | 68 µM | 38 µM | 45 µM | 31 µM | 28 µM | 43 µM | 23 µM
3 | O=C1c2ccccc2C(=O)N1CCCOP(=O)(Oc1ccccc1)Oc1ccccc1 | > 100 µM | > 100 µM | > 100 µM | > 100 µM | > 100 µM | > 100 µM | > 100 µM | > 100 µM | > 100 µM
4 | O=C1[C@@H]2[C@H](C(=O)N1CCOP(=O)(Oc1ccccc1)Oc1ccccc1)[C@H]1CC[C@@H]2O1 | > 100 µM | > 100 µM | > 100 µM | > 100 µM | > 100 µM | > 100 µM | > 100 µM | > 100 µM | > 100 µM
5 | CCOP(=O)(OCC)OCCN1C(=O)[C@@H]2[C@H](C1=O)[C@H]1CC[C@@H]2O1 | 33 µM | 18 µM | 28 µM | 15 µM | 49 µM | 27 µM | 21 µM |  | 43 µM
6 | O=C1[C@@H]2[C@H](C(=O)N1CCCOP(=O)(Oc1ccccc1)Oc1ccccc1)[C@H]1CC[C@@H]2O1 | > 100 µM | > 100 µM | > 100 µM | > 100 µM | > 100 µM | > 100 µM | > 100 µM | > 100 µM | > 100 µM
7 | O=C1[C@@H]2[C@H](C(=O)N1CCCCCOP(=O)(Oc1ccccc1)Oc1ccccc1)[C@H]1CC[C@@H]2O1 | 42 µM | 50 µM | 31 µM | 46 µM | 63 µM | 45 µM | 52 µM | 56 µM | 50 µM
8 | O=C1[C@@H]2[C@H](C(=O)N1CCO)[C@H]1CC[C@@H]2O1 | > 100 µM | > 100 µM | > 100 µM | > 100 µM | > 100 µM | > 100 µM | > 100 µM | > 100 µM | > 100 µM
9 | CCOP(=O)(OCC)O[C@H]1CCCC[C@@H]1N1C(=O)[C@@H]2[C@H](C1=O)[C@H]1CC[C@@H]2O1 | 57 µM | 33 µM | 50 µM | 22 µM | 89 µM | 47 µM | 36 µM | 31 µM | 60 µM
10 | O=C1[C@@H]2[C@H](C(=O)N1CCCCOP(=O)(Oc1ccccc1)Oc1ccccc1)[C@H]1CC[C@@H]2O1 | 14 µM | 28 µM | 19 µM | 17 µM | 64 µM | 21 µM | 13 µM | 25 µM | 17 µM
11 | O=C1[C@@H]2[C@H](C(=O)N1CCCCCCOP(=O)(Oc1ccccc1)Oc1ccccc1)[C@H]1CC[C@@H]2O1 | 5.4 µM | 14 µM | 9.1 µM | 11 µM | 25 µM | 13 µM | 7 µM | 14 µM | 14 µM

More lines, main results first:

Row | GI50 [1] | GI50 [2] | GI50 [3] | GI50 [4] | GI50 [5] | GI50 [6] | GI50 [7] | SMILES | GI50 [8] | GI50 [9]
12 | 16 µM | 32 µM | 28 µM | 26 µM | 56 µM | 31 µM | 49 µM | O=C1[C@@H]2[C@H](C(=O)N1CCCCOP(=O)(OCC(Cl)(Cl)Cl)OCC(Cl)(Cl)Cl)[C@H]1CC[C@@H]2O1 | 40 µM | 48 µM
13 | 57 µM | 72 µM | 60 µM | 47 µM | 78 µM | 80 µM | > 100 µM | O=C1[C@@H]2[C@H](C(=O)N1CCCOP(=O)(OCC(Cl)(Cl)Cl)OCC(Cl)(Cl)Cl)[C@H]1CC[C@@H]2O1 | 50 µM | 58 µM
14 | > 100 µM | > 100 µM | > 100 µM | > 100 µM | > 100 µM | > 100 µM | > 100 µM | CCOP(=O)(OCC)OCCCCCN1C(=O)[C@@H]2[C@H](C1=O)[C@H]1CC[C@@H]2O1 | > 100 µM | > 100 µM
15 | 56 µM | 69 µM | 54 µM | 39 µM | > 100 µM | 48 µM | 69 µM | O=C1[C@@H]2[C@H](C(=O)N1[C@H]1CCCC[C@@H]1OP(=O)(OCC(Cl)(Cl)Cl)OCC(Cl)(Cl)Cl)[C@H]1CC[C@@H]2O1 | 51 µM | 45 µM
16 | > 100 µM | > 100 µM | > 100 µM | > 100 µM | > 100 µM | > 100 µM | > 100 µM | CCOP(=O)(OCC)OCCCCN1C(=O)[C@@H]2[C@H](C1=O)[C@H]1CC[C@@H]2O1 | > 100 µM | > 100 µM
17 | 15 µM | 17 µM | 16 µM | 16 µM | 29 µM | 18 µM | 26 µM | O=C1[C@@H]2[C@H](C(=O)N1CCCCCOP(=O)(OCC(Cl)(Cl)Cl)OCC(Cl)(Cl)Cl)[C@H]1CC[C@@H]2O1 | 22 µM | 19 µM
18 | > 100 µM | > 100 µM | > 100 µM | > 100 µM | > 100 µM | > 100 µM | > 100 µM | O=C1[C@@H]2[C@H](C(=O)N1CCCCCCO)[C@H]1CC[C@@H]2O1 | > 100 µM | > 100 µM
19 | 11 µM | 10 µM | 12 µM | 7.7 µM | 13 µM | 12 µM | 13 µM | O=C1[C@@H]2[C@H](C(=O)N1CCCCCCOP(=O)(OCC(Cl)(Cl)Cl)OCC(Cl)(Cl)Cl)[C@H]1CC[C@@H]2O1 | 9.3 µM | 14 µM
20 | > 100 µM | > 100 µM | > 100 µM | > 100 µM | > 100 µM | > 100 µM | > 100 µM | O=C1[C@@H]2[C@H](C(=O)N1CCOP(=O)(OCC(Cl)(Cl)Cl)OCC(Cl)(Cl)Cl)[C@H]1CC[C@@H]2O1 | > 100 µM | > 100 µM
21 | > 100 µM | > 100 µM | > 100 µM | > 100 µM | > 100 µM | > 100 µM | > 100 µM | CCOP(=O)(OCC)OCCCCCCN1C(=O)[C@@H]2[C@H](C1=O)[C@H]1CC[C@@H]2O1 | > 100 µM | > 100 µM
